Entries after “also recorded” stand apart in the source; their conditions may differ.
Experiments:
[1] = system: S1P receptors on primary human macrophages; experiment: EV-activated macrophage inflammation (AH EVs on PBMC-derived macrophages); type: cell-based
Description: FIG. 14: EV-activated macrophage inflammation is SIP-dependent. A) TNF-α and B) IL-1β responses in primary human macrophages from AH subjects treated with EVs derived from HD (HD EV) or AH (AH EV) for 4 hours showing a significant increase in both cytokines by AH-EVs.
PBMC-derived macrophages were treated with EVs derived from HD or AH subjects.

LSEC CXCL expression = experiment: CXCL expression (qPCR) in LSECs pretreated with inhibitor, with or without TNFα stimulation; type: cell-based, human
Description: A) LSECs were pretreated with iBET151 (0-50 M) (n=4). CXCL1, 6, and 8 expression levels were assessed by qPCR. Expression levels were normalized to basal condition and log10 fold change values were plotted. One-way matched-pairs ANOVA analysis was performed with Post-hoc Dunnett's multiple comparison correction.
LSECs were pretreated with iBET151 (0-50 M) (n=4). CXCL2, 3, and 5 expression levels were assessed by qPCR. Expression levels were normalized to basal condition and log10 fold change values were plotted. One-way matched-pairs ANOVA analysis was performed with Post-hoc Dunnett's multiple comparison correction. Error bars indicate SD.
Primary human LSECs were purchased from ScienCell (Cat #5000) and cultured using standard cell culture techniques. Where appropriate, LSECs underwent TNFα (Peprotech, 300-01A) stimulation at 20 ng/mL. For experiments with BRD4 inhibitor, iBET151 (Cayman Chemical 11181), low passage LSECs were plated at 70% confluency and cultured overnight. Next, LSECs were serum starved for 2 hours in low serum medium (0.5% FBS in basal endothelial medium (Lonza CC-3121)). Inhibitors were added at concentrations indicated to low-serum medium, and cells were incubated in inhibitor containing medium for 2 hours. After inhibitor treatment, medium change was performed with TNFα (Peprotech 300-01A) at 20 ng/mL or control low-serum medium for 90 minutes incubation. LSECs were then collected for analysis. […] RNA was extracted and qPCR performed for expression of CXCLs.

LSECs = experiment: iBET151 LSEC cytotoxicity assay (IncuCyte); type: cell-based, human; settings: iBET151 and/or TNFα, ~30 minute intervals for 10 hours, FIG. 22
Description: FIG. 22: iBET151 LSEC cytotoxicity assay. IncuCyte system was utilized to image cells and assess for cytotoxicity. Dying cells (black arrows) are stained green by fluorescent dye, and green cells are counted for each low power image field. Cells were pretreated with control medium or iBET151 and/or TNFα, and quantification for the percentage of dead cells was done at ˜30 minutes intervals for 10 hours starting at 15 minutes. Images shown were acquired after 4 hours of incubation. […] Error bars indicate SD, n=3.

BRD4 = molecular target: T1, BRD4 (Homo sapiens, UniProt O60885); experiment: ChIP-qPCR for BRD4 binding at CXCL super enhancer and CXCL1 promoter sites in LSECs; type: cell-based; settings: with and without TNFα, after inhibitor pretreatment, FIG. 20B, 20E
T1 construct: Soluble chromatin was aliquoted and immunoprecipitated with magnetic beads with antibodies for BRD4 (Abcam ab128874); host or cells: primary human liver sinusoidal endothelial cells (LSECs)
Description: B and C) ChIP-qPCR assays for BRD4 binding (B) or NF-κB binding (C) with and without TNFα stimulation was assessed at CXCL super-enhancer and CXCL1 promoter sites after pretreatment with iBET151. D and E) Same experiments were repeated with Celastrol. Enrichment for either CXCL1 promoter (Promoter) or CXCL super enhancer (Super Enhancer) sequence was examined. Sequence enrichment was normalized to input. Box plots show top quartiles and third quartiles; whiskers show maximum and minimum values. Two-way matched-pairs ANOVA was performed on log-transformed input percentage, with Post-hoc Sidak's multiple comparisons correction (n=3).
LSECs were treated with appropriate conditions as outlined separately, and underwent CHIP according to Millipore High-Sens ChIP kit (Millipore MAGNA0025) manufacture protocols. Briefly, cells were crosslinked with formaldehyde (1% final concentration) followed by glycine treatment (100 mM) for 5 minutes each. Cells were washed, collected, and pelleted with centrifugation, and were then lysed with cell lysis buffer. Cells were repelleted and underwent nuclear lysis with provided nuclear lysis buffer, and DNA was sheared with ultrasonification. Soluble chromatin was aliquoted and immunoprecipitated with magnetic beads with antibodies for BRD4 (Abcam ab128874), NF-κB (Cell signaling 8242S), or H3K9me3 (Abcam ab8898) with appropriate isotype controls. […]

NF-κB = experiment: ChIP-qPCR for NF-κB binding at CXCL super enhancer and CXCL1 promoter sites in LSECs; type: cell-based, human; settings: with and without TNFα, after inhibitor pretreatment, FIG. 20C, 20D
Description: FIG. 20: Bromodomain inhibitors suppress expression of CXCLs by inhibition of transcription factor binding at CXCL super enhancer and promoter sites. A) LSECs were pretreated with iBET151 ([…]) (n=4). CXCL1, 6, and 8 expression levels were assessed by qPCR. Expression levels were normalized to basal condition and log10 fold change values were plotted. One-way matched-pairs ANOVA analysis was performed with Post-hoc Dunnett's multiple comparison correction. B and C) ChIP-qPCR assays for BRD4 binding (B) or NF-κB binding (C) with and without TNFα stimulation was assessed at CXCL super-enhancer and CXCL1 promoter sites after pretreatment with iBET151. D and E) Same experiments were repeated with Celastrol. Enrichment for either CXCL1 promoter (Promoter) or CXCL super enhancer (Super Enhancer) sequence was examined. Sequence enrichment was normalized to input. Box plots show […] quartiles and third quartiles; whiskers show maximum and minimum values. Two-way matched-pairs ANOVA was performed on log-transformed input percentage, with Post-hoc Sidak's multiple comparisons correction (n=3).
LSECs were treated with appropriate conditions as outlined separately, and underwent CHIP according to Millipore High-Sens ChIP kit (Millipore MAGNA0025) manufacture protocols. […]

[2] = system: alcohol fed/LPS C57BL/6 mice; experiment: Murine chronic alcohol feeding/LPS model with iBET151; type: in vivo, mouse
Description: FIG. 23: Bromodomain Inhibitor iBET151 Attenuates Liver CXCL Production and Neutrophil Infiltration in a Murine Alcohol Feeding/LPS Model. A) Schematic of alcohol feeding protocol. Mice were fed 5% alcohol diet or pair-fed control diet for 10 days. A subset of mice also received IP injection of iBET151 compound. Alcohol fed mice also received IP injection of LPS on day 11, 8 hours before sacrifice (n=6-8 in pair-fed groups, n=12-14 in alcohol fed groups). […] This response was attenuated by iBET151 injections. Expression levels were normalized to average expression of pair-fed control mice. C) IHC for MPO (neutrophil marker) is shown, with number of neutrophils per low power fields on y-axis. […] For all analysis, two-way ANOVA was performed on normalized expression values for qPCRs or cell counts for IHC staining or ALT values, with Post-hoc Tukey's multiple comparisons correction.
WT C57BL/6 mice (10-12 weeks) were purchased from Envigo Laboratories. Mice were subjected to chronic alcohol feeding to induce alcohol-induced liver injury with modification to the NIAAA model (see, e.g., Kong et al., Sci. Rep., 7(1):9292 (2017)). Briefly, mice were acclimated to liquid diet for 5 days, and were fed either 5% alcohol containing liquid diet or isocaloric pair-fed control diet. On Day 11, LPS (Invivogen tlrl-eblps) was intraperitoneally (IP) injected at 4 mg/kg to alcohol-fed mice. PBS of the same volume was given to pair-fed mice. All mice were sacrificed 8 hours later. A subset of mice, concurrent with alcohol or pair-feeding, was given injection of iBET151 daily. Mice were injected IP with iBET151 (6 mg/kg) in 10% Kleptose 2% DMSO solution or equal volume of carrier solution. On Day 11, drug or vehicle was administered 1 hour before LPS injection.
To generate an in vivo model with more exaggerated inflammation that could simulate human AH, a protocol of the chronic alcohol feeding model was modified by substituting the alcohol binge with a single LPS injection (FIG. 23A; see, also, Kong et al., Sci. Rep., 7(1):9292 (2017)). […] There was a significant increase in serum alanine aminotransferase (ALT) in alcohol fed/LPS mice (FIG. 23D). To assess the role of super enhancer activation in alcohol fed/LPS induced liver inflammation, the pan-BET inhibitor iBET151 was given to mice as daily IP injections alongside alcohol feeding or LPS injection.

[3] = system: BET proteins (BRD2, 3, 4 and T); settings: Seal et al., Bioorg. Med. Chem. Lett. 2012; cited from earlier work
HepG2Cyp2E1 cells = experiment: Ethanol-induced EV release from HepG2Cyp2E1 cells (UTC isolation, NTA count); type: cell-based, human; settings: HepG2Cyp2E1 cells pretreated with IL-22 prior to ethanol
Source text: (§1) IL-22 is being investigated as a potential therapy in AH due to its hepatoprotective effects. To investigate if IL-22 can inhibit ethanol-induced EV release, HepG2Cyp2E1 (human hepatoma cells that can metabolize ethanol due to the enforced expression of cytochrome P450 2E1) cells were pretreated with IL-22 prior to the addition of ethanol. Subsequently, EVs were isolated from cell culture supernatants by UTC and quantified with NTA. Similarly, IL-22 reduced EV counts in AH patients after treatment.

AH patients = experiment: EV counts in AH patients after IL-22 treatment; type: in vivo, human
Source text: as §1

[4] = alcohol fed/LPS mice, iBET151 6 mg/kg IP daily, FIG. 23B

## CCCCCCCCc1ccc(CCC(N)(CO)CO)cc1 [FTY720]
[1]; PBMC-derived macrophages treated with AH EVs
  AH EV-activated proinflammatory signaling in macrophages: significantly inhibited
[1]; primary human macrophages from AH subjects, EVs for 4 hours, FTY 720 1 μM, FIG. 14A
  TNF-α response to AH EVs: significantly reduced
[1]; primary human macrophages from AH subjects, EVs for 4 hours, FTY 720 1 μM, FIG. 14B
  IL-1β response to AH EVs: significantly reduced

## COc1cc2c(cc1-c1c(C)noc1C)ncc1[nH]c(=O)n([C@H](C)c3ccccn3)c12 [iBET151]
LSEC CXCL expression; HHSEC pretreated with varying amounts of iBET151, FIG. 18
  CXCL expression after TNFα stimulation: suppresses
LSEC CXCL expression; LSECs pretreated with iBET151 (0-50 M), with TNFα and without TNFα, FIG. 21
  CXCL2, 3, 5 expression (qPCR): linear trend for decreasing
LSEC CXCL expression; in vitro, in the presence of iBET151, FIG. 20A, 21A, iBET151 0-50 M, TNFα 20 ng/mL
  LSEC CXCL expression: significantly decreased
LSECs
  cytotoxicity (percentage of dead cells): without significant cytotoxicity; also recorded: no significant difference among treatment groups
BRD4
  BRD4 occupancy/binding at CXCL super enhancer and CXCL1 promoter sites (ChIP): inhibitory effect
NF-κB
  NF-κB binding at CXCL super enhancer and CXCL1 promoter sites (ChIP): trend for decreased
[2]; alcohol fed/LPS mice given iBET151, FIG. 26A
  cleaved caspase 3 level in liver (Western blot): decrease; also recorded: attenuated
[2]; [4]
  hepatic expression of Cxcl1 (qPCR): significantly decreased
  hepatic expression of Cxcl2 (qPCR): significantly decreased
[2]; alcohol fed/LPS mice, iBET151 6 mg/kg IP daily, FIG. 23B, 23C
  neutrophil infiltration of the liver (Ly6g expression, MPO IHC): decreased
[2]; alcohol fed/LPS mice, iBET151 6 mg/kg IP daily, FIG. 25, 6 mg/kg
  steatosis (BODIPY 493/503 stain): decreased; also recorded: attenuated
[2]; alcohol feeding and LPS injection, IP iBET151, figure legends FIG. 19, FIG. 23B
  liver CXCL chemokine production/elevation (qPCR): attenuated
[2]; alcohol/LPS mice, IP iBET151, figure legends FIG. 19, FIG. 23B
  neutrophil marker Ly6g (qPCR): reduced; also recorded: attenuated
[2]; pair-fed or EtOH+LPS, vehicle or iBET151, FIG. 26B
  Malondialdehyde (MDA), lipid peroxidation, in mice livers: no difference among treatment groups
[2]; pair-fed or EtOH+LPS, vehicle or iBET151, FIG. 26C
  8-Hydroxy-2′-deoxyguanosine (8-OHdG), DNA oxidation, in mice livers: no difference among treatment groups
[3]
  activity against both bromodomains (BD) of all four BET proteins: highly specific activity

B1: IL-22: IL-22 polypeptide, hepatoprotective cytokine investigated as potential therapy in AH (protein, UniProt Q9GZX6 34-179, looked up)
Interleukin-22: APISSHCRLDKSNFQQPYITNRTFMLAKEASLADNNTDVRLIGEKLFHGVSMSERCYLMKQVLNFTLEEVLFPQSDRFQPYMQEVVPFLARLSNRLSTCHIEGDDLHIQRNVQKLKDTVKKLGESGEIKAIGELDLLFMSLRNACI
HepG2Cyp2E1 cells
  ethanol-induced EV release: significantly inhibited
AH patients
  EV counts in AH patients: reduced
